The numbers were not newly measured in paper PMC2895553 (Journal of the American Chemical Society, 2010), which cites them from elsewhere.

In the data set the test system is αvβ3 integrin.

“cyclo(-Arg-Gly-Asp-DPhe-(Me)Val-] [Cilengitide]”: the “activity as inhibitor for the αvβ3 integrin” value is 0.5 nM.
